# pIC50, pKi: −log10 of the molar value.
# Target: Proto-oncogene tyrosine-protein kinase Src (Homo sapiens, UniProt P12931)
# Experiment: Inhibition of c-Src
# Chain of Proto-oncogene tyrosine-protein kinase Src (P12931 2-536 limits assumed): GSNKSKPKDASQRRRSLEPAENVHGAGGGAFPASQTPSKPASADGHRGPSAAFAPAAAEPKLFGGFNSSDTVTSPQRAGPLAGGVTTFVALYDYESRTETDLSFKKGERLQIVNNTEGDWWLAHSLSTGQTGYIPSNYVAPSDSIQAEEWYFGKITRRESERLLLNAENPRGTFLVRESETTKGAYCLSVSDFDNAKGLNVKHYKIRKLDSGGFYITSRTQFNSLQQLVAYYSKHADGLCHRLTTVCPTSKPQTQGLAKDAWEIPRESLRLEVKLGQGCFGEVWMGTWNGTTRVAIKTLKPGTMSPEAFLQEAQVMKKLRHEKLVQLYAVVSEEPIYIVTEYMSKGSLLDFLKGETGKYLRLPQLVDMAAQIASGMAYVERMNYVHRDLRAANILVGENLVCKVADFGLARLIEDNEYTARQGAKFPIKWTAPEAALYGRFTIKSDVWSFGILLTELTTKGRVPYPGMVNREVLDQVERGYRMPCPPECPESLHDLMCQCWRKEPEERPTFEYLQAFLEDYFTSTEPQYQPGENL
Structure (SMILES),pIC50,pKi
ClC(Cn1ncc2c(NCc3ccccc3)ncnc21)c1ccccc1 (centres undefined),–,5.50
Nc1ncnc2c1c(-c1ccccc1)cn2-c1ccccc1CO,6.50,–
Nc1ncnc2c1c(-c1ccc(O)cc1)cn2C1CCC1,8.00,–
COc1ccc(-c2cn(-c3ccccc3)c3ncnc(N)c23)cc1,6.80,–
Nc1ncnc2c1c(-c1ccccc1)cn2C1CCCC1,6.90,–
COc1cccc(-c2cn(-c3ccccc3)c3ncnc(N)c23)c1,7.30,–
CC(C)(C)OC(=O)N1C[C@H](n2cc(-c3ccc(O)cc3)c3c(N)ncnc32)C[C@H]1CO,7.60,–
Nc1ncnc2c1c(-c1ccccc1)cn2-c1ccc(CO)cc1,7.70,–
Nc1ncnc2c1c(-c1ccccc1)cn2-c1cccc(CO)c1,7.20,–
Nc1ncnc2c1c(-c1ccc(O)cc1)cn2C1CCCC1,7.70,–
CCOC(=O)C[C@@H]1C[C@H](n2cc(-c3ccc(O)cc3)c3c(N)ncnc32)CN1C(=O)OC(C)(C)C,6.50,–
Nc1ncnc2c1c(-c1ccccc1)cn2C1CC1,6.60,–
COC(=O)CN1CCC(n2cc(-c3cccc(O)c3)c3c(N)ncnc32)CC1,9.00,–
COc1ccccc1-c1cn(-c2ccccc2)c2ncnc(N)c12,5.20,–
Nc1ncnc2c1c(-c1ccc(O)cc1)cn2CC(CO)CO,6.30,–
COc1cccc(-c2cn(C3CCN(CC(N)=O)CC3)c3ncnc(N)c23)c1,7.70,–
COc1cccc(-c2cn(-c3cccc(CO)c3)c3ncnc(N)c23)c1,7.20,–
ClC(Cn1ncc2c(NCCc3ccccc3)ncnc21)c1ccccc1 (centres undefined),–,5.70
CCOC(=O)C[C@@H]1C[C@H](n2cc(-c3ccc(O)cc3)c3c(N)ncnc32)CN1,8.30,–
CNc1ncnc2c1c(-c1ccccc1)cn2-c1ccccc1,5.00,–
Clc1ncnc2c1c(-c1ccccc1)cn2-c1ccccc1,5.10,–
COc1cccc(-c2cn(C3CCCC3)c3ncnc(N)c23)c1,8.70,–
CCOC(=O)c1ccc(-c2cn(-c3ccccc3)c3ncnc(N)c23)cc1,5.00,–
COCCN(C)CCN1CCC(n2cc(-c3cccc(OC)c3)c3c(N)ncnc32)CC1,7.30,–
CC(C)(C)OC(=O)N1C[C@H](n2cc(-c3ccccc3)c3c(N)ncnc32)C[C@H]1CO,6.90,–
Nc1ncnc2c1c(-c1ccccc1)cn2-c1ccc(CNCCO)cc1,7.50,–
Nc1ncnc2c1c(-c1ccccc1)cn2-c1ccccc1CNCCO,5.30,–
COc1cccc(-c2cn(-c3ccc(CC(=O)NCCO)cc3)c3ncnc(N)c23)c1,7.70,–
CN(C)C(=O)CN1CCC(n2cc(-c3cccc(O)c3)c3c(N)ncnc32)CC1,8.50,–

# Further lines, results first:
pIC50,pKi,Structure (SMILES)
6.90,–,Nc1ncnc2c1c(-c1ccccc1)cn2[C@@H]1CN[C@H](CO)C1
7.50,–,COc1cccc(-c2cn(-c3ccc(CCN(C)CCO)cc3)c3ncnc(N)c23)c1
8.00,–,Nc1ncnc2c1c(-c1ccccc1)cn2-c1cccc(CNCCO)c1
8.40,–,Nc1ncnc2c1c(-c1cccc(O)c1)cn2C1CCC1
7.00,–,CCOC(=O)C[C@@H]1C[C@@H](n2cc(-c3ccc(O)cc3)c3c(N)ncnc32)CN1
6.30,–,Nc1ncnc2c1c(-c1ccccc1)nn2-c1ccccc1
5.30,–,Nc1ncnc2c1c(-c1ccccc1)cn2[C@H](CO)c1ccccc1
6.70,–,COc1ccc(-c2cn(C3CCC3)c3ncnc(N)c23)cc1
7.20,–,COc1cccc(-c2cn(C3CCN(CC(=O)N(C)C)CC3)c3ncnc(N)c23)c1
7.40,–,COc1cccc(-c2cn(C3CCC3)c3ncnc(N)c23)c1
6.50,–,COc1cccc(-c2cn(CC(CO)CO)c3ncnc(N)c23)c1
–,5.00,OC(Cn1ncc2c(NCc3ccc(F)cc3)ncnc21)c1ccccc1 (centres undefined)
9.00,–,Nc1ncnc2c1c(-c1cccc(O)c1)cn2C1CCCC1
7.60,–,COc1cccc(-c2cn(C3CCN(CCO)CC3)c3ncnc(N)c23)c1
7.10,–,COC(=O)CN1CCC(n2cc(-c3cccc(OC)c3)c3c(N)ncnc32)CC1
7.40,–,OCCNCCOc1ccc(-n2cc(-c3cccc(O)c3)c3cncnc32)cc1
7.00,–,Nc1ncnc2c1c(-c1ccc(O)cc1)cn2[C@H]1CN[C@H](CO)C1
–,5.40,O=C(O)c1cnc2c(cnn2/C=C/c2ccccc2)c1NCc1ccccc1
5.70,–,CC(C)(C)OC(=O)N1C[C@@H](n2cc(-c3ccccc3)c3c(N)ncnc32)C[C@H]1CO
6.40,–,CCOC(=O)C[C@@H]1C[C@@H](n2cc(-c3ccccc3)c3c(N)ncnc32)CN1C(=O)OC(C)(C)C

pIC50,pKi,Structure (SMILES)
7.00,–,Nc1ncnc2c1c(-c1ccccc1)cn2C1CCC1
–,6.10,CSc1nc(Nc2cccc(Cl)c2)c2cnn(CC(Cl)c3ccccc3)c2n1 (centres undefined)
6.50,–,Nc1ncnc2c1c(-c1ccccc1)cn2[C@H]1CN[C@H](CO)C1
6.70,–,Nc1ncnc2c1c(-c1cccc(Cl)c1)cn2-c1ccccc1
6.70,–,Nc1ncnc2c1c(-c1ccccc1)cn2CC(CO)CO
6.20,–,CCOC(=O)C[C@@H]1C[C@@H](n2cc(-c3ccccc3)c3c(N)ncnc32)CN1
7.80,–,CCOC(=O)C[C@@H]1C[C@H](n2cc(-c3ccccc3)c3c(N)ncnc32)CN1
7.70,–,COc1cccc(-c2cn(-c3ccc(CCN4CCC(O)CC4)cc3)c3ncnc(N)c23)c1
8.20,–,COc1cccc(-c2cn(C3CCN(CCN(C)CCO)CC3)c3ncnc(N)c23)c1
–,5.00,CCCNc1ncnc2c1cnn2CC(O)c1ccccc1 (centres undefined)
7.50,–,COc1cccc(-c2cn(-c3ccc(CNCCO)cc3)c3ncnc(N)c23)c1
5.60,–,Nc1ncnc2c1c(-c1ccccc1)cn2CCC(CO)CO
7.50,–,CCOC(=O)C[C@@H]1C[C@@H](n2cc(-c3ccc(O)cc3)c3c(N)ncnc32)CN1C(=O)OC(C)(C)C
7.10,–,COc1ccc(-c2cn(C3CCCC3)c3ncnc(N)c23)cc1
6.30,–,Nc1ncnc2c1c(-c1ccccc1)cn2[C@@H](CO)c1ccccc1
5.00,–,O=c1[nH]cnc2c1c(-c1ccccc1)cn2-c1ccccc1
7.30,–,Nc1ncnc2c1c(-c1ccc(O)cc1)cn2[C@@H]1CN[C@H](CO)C1
6.50,–,CC(C)(C)OC(=O)N1C[C@@H](n2cc(-c3ccc(O)cc3)c3c(N)ncnc32)C[C@H]1CO
7.00,–,Nc1ncnc2c1c(-c1ccccc1)cn2-c1ccccc1
5.30,–,CCOC(=O)C[C@@H]1C[C@H](n2cc(-c3ccccc3)c3c(N)ncnc32)CN1C(=O)OC(C)(C)C
